Key:
Experiment in all cases: relative viability (nuclei count vs DMSO), 5 days (fraction); higher = more cells survive
Axitinib + Bortezomib = compound: CNC(=O)c1ccccc1Sc1ccc2c(/C=C/c3ccccn3)n[nH]c2c1 [Axitinib] + CC(C)C[C@H](NC(=O)[C@H](Cc1ccccc1)NC(=O)c1cnccn1)B(O)O [Bortezomib] (partner 0.002 µM)
Outline: (§1)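 Lung cancer cell lines, seeded in 1536-well plates, were treated the following day by pin tool with a single drug or with five library-drug doses (not always all listed) in √10 steps on top of a fixed anchor-drug dose. Cells were fixed and nuclei stained in one step after 5 days, and nuclei were counted. Relative viability is the nuclei count for treated wells divided by that for vehicle wells, reported as medians of duplicate plates.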

[1] = compound: CC1=CC=C(C=C1)C(=O)CN2C3=C(CCCC3)SC2=N [Pifithrin_alpha] + Nc1ncn([C@H]2C[C@H](O)[C@@H](CO)O2)c(=O)n1 [Decitabine] (partner 2 µM)
Outline: as §1

Axitinib + Foretinib = compound: CNC(=O)c1ccccc1Sc1ccc2c(/C=C/c3ccccn3)n[nH]c2c1 [Axitinib] + COc1cc2c(Oc3ccc(NC(=O)C4(C(=O)Nc5ccc(F)cc5)CC4)cc3F)ccnc2cc1OCCCN1CCOCC1 [Foretinib] (partner 0.25 µM)
Outline: as §1

Cell Line | relative viability (Axitinib + Bortezomib; first compound 0.005 µM) | relative viability (Axitinib + Bortezomib; first compound 0.01581 µM) | relative viability (Axitinib + Bortezomib; first compound 0.05 µM) | relative viability (Axitinib + Bortezomib; first compound 0.1581 µM) | relative viability (Axitinib + Bortezomib; first compound 0.5 µM) | relative viability ([1]; first compound 1 µM) | relative viability ([1]; first compound 3.162 µM) | relative viability ([1]; first compound 10 µM) | relative viability ([1]; first compound 31.62 µM) | relative viability ([1]; first compound 100 µM) | relative viability (Axitinib + Foretinib; first compound 0.005 µM) | relative viability (Axitinib + Foretinib; first compound 0.01581 µM) | relative viability (Axitinib + Foretinib; first compound 0.05 µM) | relative viability (Axitinib + Foretinib; first compound 0.1581 µM) | relative viability (Axitinib + Foretinib; first compound 0.5 µM)
LCLC-103H | 1.07 | 1.07 | 1.18 | 1.03 | 1.07 | 0.659 | 0.7 | 0.708 | 0.636 | 0.65 | 0.747 | 0.867 | 0.787 | 0.764 | 0.85
BEN | 0.804 | 0.781 | 0.554 | 0.75 | 0.543 | 0.505 | 0.771 | 0.742 | 0.623 | 0.639 | 0.662 | 0.514 | 0.643 | 0.852 | 0.573
NCI-H1755 | 0.973 | 0.973 | 0.932 | 0.971 | 0.967 | 0.74 | 0.632 | 0.731 | 0.593 | 0.729 | 0.946 | 0.931 | 0.788 | 0.888 | 0.935
LU99A | 1.1 | 1.09 | 1.13 | 1.12 | 1.12 | 0.834 | 0.919 | 1.04 | – | 0.863 | 0.901 | 0.851 | 0.818 | 0.894 | 0.936
NCI-H460 | 1.09 | 1.07 | 0.975 | 0.96 | 1.37 | 0.531 | 0.496 | 0.392 | 0.218 | 0.215 | 1.01 | 0.917 | 0.974 | 0.995 | 1.05
SK-LU-1 | 1.29 | 1.2 | 1.43 | 1.08 | 1.08 | 0.646 | 0.763 | 0.622 | 0.535 | 0.698 | 0.904 | 0.959 | 0.929 | 0.849 | 1.1
HARA | 1.09 | 1.07 | 1.1 | 1.13 | 1.14 | 0.474 | 0.622 | 0.628 | 0.514 | 0.472 | 0.768 | 0.907 | 0.945 | 0.821 | 0.919
ABC-1 | 0.34 | 0.307 | 0.315 | 0.254 | 0.289 | – | 1.02 | 1.03 | 1 | 0.803 | 1.02 | 1.04 | 1.17 | 0.916 | 1.29
